Source: patent US20160128988A1, “COMBINATIONS FOR THE TREATMENT OF CANCER COMPRISING A MPS-1 KINASE INHIBITOR AND A MITOTIC INHIBITOR” (BAYER PHARMA AKTIENGESELLSCHAFT, priority 2013, published 2016)
Like-named read-outs stand apart in the source and are kept apart here. Marks after values point to notes of the source that are not given here.

Tests used:
[1] = Maximum tolerated dose (MTD); format: in vivo, nude mice
[2] = system: NCI-H1299 human NSCLC xenograft tumors; details: Compound A1 2 mg/kg 2QD 2on/5off p.o., docetaxel 15 mg/kg QD 1on/6off i.v.; for T/C area: relative mean tumor area, 20 treatment days
From the text: The effect of combination treatment of an Mps-1 kinase inhibitor (Compound A1) with docetaxel, another SAC activating, […], anti-mitotic agent, used as standard of care in NSCLC patients, was studied in the NCI-H1299 taxane intrinsically resistant human lung carcinoma (NSCLC) xenograft model in nude mice.
Docetaxel was applied intravenously once per week upon its respective MTD. Substances were formulated in optimal vehicles to achieve solutions. Animal body weight and tumor size were determined two times weekly. […] For combination treatment Compound A1and docetaxel were applied at the same day within a time frame of 4 hours. Animals of control and Mps-1 kinase inhibitor monotherapy group were treated for a duration of 20 days. Animals of docetaxel monotherapy and docetaxel/Mps-1 kinase inhibitor combination treatment groups were treated for a duration of 42 days. At the end of the study after one final treatment plasma and tumors were sampled for PK analysis and final tumor weight was determined.
(§1) NCI-H1299 human NSCLC tumor cells were implanted s.c. into nude mice on day 0. […] Compound A1 was administered orally (p.o.) upon 2.0 mg/kg twice daily (2QD) for 2 days on/5 days off (2 on/5 off) in monotherapy and in combination with docetaxel. Docetaxel was administered intravenously (i.v.) upon 15 mg/kg once daily (QD) once per week (1 on/6 off) in monotherapy and combination therapy. Tumor growth was monitored by determination of the tumor area using calliper measurement two to three times weekly. FIG. 2A: Time course of tumor growth. FIG. 2B: Weight of tumors in docetaxel/Mps-1 kinase inhibitor combination group at the end of the study at day 52 after tumor cell inoculation. FIG. 2C: Time course of animal body weight change during the course of the study.

A2780cis xenograft model = system: A2780cis xenograft model
Experimental: The effect of the combination treatment of Compound A1 with paclitaxel was studied in a human ovarian carcinoma model in nude mice, namely in the adaptive cisplatin-resistant and paclitaxel intrinsically-resistant A2780cis xenograft model. […] Paclitaxel was administered IV QW at its respective MTD.

[3] = system: MKN1 human gastric carcinoma model; experiment: Combination with paclitaxel in MKN1 human gastric carcinoma model
Experimental: (§3) Compound A1 was administered PO in the 2QD intermittent (2 days on/5 days off) dosing schedule up to the respective MTD in single-agent treatment and at a dose of 40% of the single-agent MTD in combination. Paclitaxel was administered IV QW at its respective MTD. Treatment for all groups started at a tumor size of 27 mm^2, on day 7 after tumor cell inoculation. For combination treatment, Compound A1 and paclitaxel were administered on the same day within a time of 4 hours. Animals of the control and Compound A1 single-agent treatment groups were treated for 40 days. Animals of the paclitaxel single-agent and Compound A1 with paclitaxel combination treatment groups were treated for 78 days.

[4] = system: primary human NSCLC xenograft model LU387; experiment: Combination with paclitaxel in primary human NSCLC xenograft model LU387; format: in vivo, nude mice; details: day 42; paclitaxel 20 mg/kg IV QW for 6 weeks, alone or in combination with Compound A1
Experimental: The effect of Compound A1 and paclitaxel compared with a vehicle was evaluated in the subcutaneous primary human NSCLC xenograft model LU387 on nude mice.

[5] = system: IGR-OV1 human ovarian carcinoma model
Experimental: Paclitaxel was administered IV QW at 50% of its respective MTD.

[6] = system: MKN1 human gastric carcinoma model; details: mouse, in vivo
Experimental: as §3

[7] = system: NCI-H1299 human NSCLC xenograft tumors; details: Compound A1 0.45 mg/kg 2QD 2on/5off p.o., paclitaxel 20 mg/kg QD 1on/6off i.v.; for T/C area: relative mean tumor area, 28 treatment days
Experimental: The effect of combination treatment of an Mps-1 inhibitor and paclitaxel was studied in the NCI-H1299 taxane intrinsically resistant human lung carcinoma (NSCLC) xenograft model in nude mice.
(§2) Paclitaxel was applied intravenously once per week upon its respective MTD. Substances were formulated in optimal vehicles to achieve solutions. Animal body weight and tumor size were determined two to three times weekly. […] For combination treatment, the Compound A1 and paclitaxel were applied at the same day within a time frame of 4 hours. Animals of control and monotherapy group (Compound A1 only) were treated for a duration of 28 days. Animals of paclitaxel monotherapy and paclitaxel/Mps-1 inhibitor treatment groups were treated for a duration of 37 days. At the end of the study after one final treatment plasma and tumors were sampled for PK analysis and final tumor weight was determined.
as §1, with “FIGS. 1A and 1B show the response of NCI-H1299 human NSCLC xenograft tumors to treatment with Compound A1 in combination with paclitaxel. NCI-H1299” for “NCI-H1299”, “0.45” for “2.0”, “paclitaxel. Paclitaxel” for “docetaxel. Docetaxel”, “20” for “15”, “1A:” for “2A:”, “1B:” for “2B: Weight of tumors in docetaxel/Mps-1 kinase inhibitor combination group at the end of the study at day 52 after tumor cell inoculation. FIG. 2C:”

[8] = system: cisplatin-resistant ovarian cancer cells A2780cis; experiment: Mode of action: histopathology of A2780cis tumors after treatment
Experimental: To explain in vivo the mode of action of an Mps-1 kinase inhibitor in single-agent treatment and combination treatment with a taxane, female NMRI (Naval Medical Research Institute) nude mice were implanted with cisplatin-resistant ovarian cancer cells A2780cis.
Paclitaxel was administered IV (intravenous(ly)) QW (once per week (meaning the 1 day on/6 days off treatment schedule)) at its MTD (24 mg/kg) in single-agent and combination treatments. […] Tumors were embedded in paraffin, sections were prepared and stained with hematoxylin & eosin for histopathological analysis.

[9] = system: MDA-MB 231 human triple-negative breast cancer xenograft tumors; details: Compound A1 1 mg/kg 2QD 2on/5off p.o., paclitaxel 20 mg/kg QD 1on/6off i.v.; for T/C area: relative mean tumor area, 28 treatment days
Experimental: The effect of combination treatment of an Mps-1 kinase inhibitor (Compound A1) and paclitaxel was studied in the MDA-MB 231 human triple-negative (no expression of Her2/neu, progesterone receptor, estrogen receptor) xenograft model in nude mice.
as §2, with “determined” for “determined two to”, “treatment,” for “treatment, the”, “paclitaxel/Mps-1 kinase” for “paclitaxel/Mps-1”, “50” for “37”
MDA-MB 231 human breast cancer cells were implanted s.c. into nude mice on day 0. […] Compound A1 was administered orally (p.o.) upon 1 mg/kg twice daily (2QD) for 2 days on/5 days off (2 on/5 off) in monotherapy and in combination with paclitaxel. Paclitaxel was administered intravenously (i.v.) upon 20 mg/kg once daily (QD) once per week (1 on/6 off) in monotherapy and combination therapy. Tumor growth was monitored by determination of the tumor area using calliper measurement three times weekly. FIG. 3A: Time course of tumor growth. FIG. 3B: Weight of tumors in paclitaxel/Mps-1 kinase inhibitor combination group at the end of the study at day 73 after tumor cell inoculation. FIG. 3C: Time course of animal body weight change during the course of the study.

[10] = system: human glioblastoma model U87 MG; experiment: Combination with vincristine in human glioblastoma model U87 MG (intracerebral); format: in vivo, nude mice
Experimental: The study was designed to determine the response of this glioblastoma model to the treatment with the investigational Compound A1 and vincristine, both alone at a fixed dose, and vincristine in combination with two different doses, both lower than that of Compound A1 used in the monotherapy schedule. The size of the glioblastoma was used as read out parameter for response.
The cell culture derived human xenograft U87 MG was initiated by transplantation of the tumor cells into the left hemisphere of the mouse brain. Treatment was done in three cycles between day 3 and day 19. Mice were sacrificed at day 24, the brain isolated and shock frozen in 2 methyl-butane. Tumor size were determined as measure for tumor growth inhibition from cryo-slizes after staining.

[11] = after 78 treatment days, paclitaxel 24 mg/kg IV QW
[12] = day 24, single agents: Gr. B Compound A1 2.5 mg/kg p.o., Gr. C Vincristine 0.75 mg/kg i.p.

SMILES: CC(=O)O[C@@]12CO[C@@H]1C[C@H](O)[C@@]1(C)C(=O)[C@H](O)C3=C(C)[C@@H](OC(=O)[C@H](O)[C@@H](NC(=O)OC(C)(C)C)c4ccccc4)C[C@@](O)([C@@H](OC(=O)c4ccccc4)[C@H]21)C3(C)C [Docetaxel, 1,7β,10β-trihydroxy-9-oxo-5β,20-epoxytax-11-ene-2α,4,13α-triyl 4-acetate 2-benzoate 13-{(2R,3S)-3-[(tert-butoxycarbonyl)amino]-2-hydroxy-3-phenylpropanoate}, reference compound]
- MTD ([1]; nude, mouse, in vivo, Compound A1 PO 2QD 2 days on/5 days off, paclitaxel IV QW, docetaxel i.v. 1 day on/6 days off, read-out: MTD (maximum tolerated dose), single-agent): 15 mg/kg
- Fatal Tox [2]: 0/8
- Max. Body weight loss (%) [2]: −2%
- T/C area [2]: 0.16^#
- T/C area ([2]; listed as docetaxel): 0.16

SMILES: CC(=O)O[C@H]1C(=O)[C@@]2(C)[C@H]([C@H](OC(=O)c3ccccc3)[C@]3(O)C[C@H](OC(=O)[C@H](O)[C@@H](NC(=O)c4ccccc4)c4ccccc4)C(C)=C1C3(C)C)[C@]1(OC(C)=O)CO[C@@H]1C[C@@H]2O [Paclitaxel, (2α,4α,5β,7β,10β,13α)-4,10-bis(acetyloxy)-13-{[(2R, 3S)-3-(benzoylamino)-2-hydroxy-3-phenylpropanoyl]oxy}-1,7-dihydroxy-9-oxo-5,20-epoxytax-11-en-2-yl benzoate, reference compound]
- relative T/Carea (A2780cis xenograft model; 14 treatment days, Compound A1 1 mg/kg PO 2QD 2 days on/5 days off, paclitaxel 24 mg/kg IV QW): 0.09
- tolerability (in words) (A2780cis xenograft model; mouse, in vivo): well tolerated without critical body weight loss or toxicities
- relative T/Carea ([3]; 40 treatment days, paclitaxel 24 mg/kg IV QW, combination with Compound A1 1 mg/kg PO 2QD 2 days on/5 days off): 0.05
- partial regression (% of tumors) [3, 11]: 20%
- tumor growth delay (% of tumors) [3, 11]: 80%
- anti-tumor efficacy (in words) ([3]; mouse, in vivo): overall disease stabilization
- Fatal toxicity (number of animals) ([3]; paclitaxel group: Treatment Day 57, combination group: after the first treatment cycle): 1
- MTD (maximum tolerated dose), single-agent ([1]; paclitaxel i.v. 1 day on/6 days off, as stated for the NCI-H1299 study): 20 mg/kg
- mean tumor size [4]: 1494 mm^3
- relative T/Carea ([5]; 38 treatment days, Compound A1 single agent 2.5 mg/kg PO 2QD, paclitaxel 12 mg/kg IV QW, combination with Compound A1 2 mg/kg PO 2QD): 0.34
- anti-tumor efficacy (in words) ([5]; Compound A1 2.5 mg/kg single agent (38 days), paclitaxel 12 mg/kg and combination with Compound A1 2 mg/kg (treatment day 38 to 59)): clear tumor progression
- tolerability (in words) ([5]; mouse, in vivo): well tolerated without critical body weight loss or toxicities
- tolerability (in words) [6]: overall well tolerated without critical body weight loss
- Fatal Tox [7]: 0/10
- T/C area [7]: 0.28^#
- T/C area ([7]; listed as paclitaxel): 0.28
- histopathological phenotype of tumor tissue ([8]; paclitaxel 24 mg/kg IV QW single agent, 4 and 8 hours after treatment): induced atypical mitoses
- histopathological phenotype of tumor tissue ([8]; paclitaxel 24 mg/kg IV QW single agent, 28, 32 and 48 hours after treatment): increased necrosis and apoptosis
- Fatal Tox [9]: 0/10
- T/C area [9]: 0.14^#
- T/C area ([9]; listed as paclitaxel): 0.14

SMILES: CC[C@]1(O)C[C@H]2CN(CCc3c([nH]c4ccccc34)[C@@](C(=O)OC)(c3cc4c(cc3OC)N(C=O)[C@H]3[C@@](O)(C(=O)OC)[C@H](OC(C)=O)[C@]5(CC)C=CCN6CC[C@]43[C@@H]65)C2)C1 [Vincristine, vincristine, reference compound]
- inhibition of tumor growth ([10]; Gr. C vincristine alone, Gr. D combination of high dose Compound A1 and vincristine): 38.6%
- Brain tumor inside [mm^2] ([10]; day 24, single agents: Gr. B Compound A1 2.5 mg/kg p.o. BIDx2x3, Gr. C Vincristine 0.75 mg/kg i.p. 1xqWx3): 10.69 +/− 6.71 mm^2
- Brain tumor outside [mm^2] [10, 12]: 4.50 +/− 1.66 mm^2
- Brain tumor total [mm^2] [10, 12]: 13.26 +/− 7.25 mm^2
- T/C (inside T) [%] [10, 12]: 61.4%
